Test: xn = mol fraction of the nth substance listed
Settings: 298.15 K, 101 kPa, Liquid, Vibrating tube method

CCC[NH3+].O=[N+]([O-])[O-] [propylammonium nitrate] + CN1CCCC1=O
Settings | mass density [kg/m3]
x1 = 0.046 | 1038.38
x1 = 0.167 | 1059.42
x1 = 0.202 | 1064.53
x1 = 0.263 | 1073.3
x1 = 0.329 | 1081.53
x1 = 0.406 | 1090.6
x1 = 0.461 | 1096.52
x1 = 0.551 | 1105.72
x1 = 0.582 | 1108.68
x1 = 0.628 | 1113.18
x1 = 0.661 | 1116.42
x1 = 0.721 | 1122.67
x1 = 0.781 | 1128.74
x1 = 0.808 | 1130.96
x1 = 0.862 | 1136.73

CN1CCCC1=O [N-methylpyrrolidone] + CCC[NH3+].O=[N+]([O-])[O-]
Settings | mass density [kg/m3]
x2 = 0 | 1028.25

CC[NH3+].O=[N+]([O-])[O-] [ethylammonium nitrate] + CN1CCCC1=O
Settings | mass density [kg/m3]
x1 = 0.049 | 1040.83
x1 = 0.138 | 1059.94
x1 = 0.166 | 1065.8
x1 = 0.223 | 1076.59
x1 = 0.242 | 1080.27
x1 = 0.292 | 1089.23
x1 = 0.347 | 1098.75
x1 = 0.413 | 1109.61
x1 = 0.457 | 1116.43
x1 = 0.48 | 1119.62
x1 = 0.54 | 1129.36
x1 = 0.592 | 1137.95
x1 = 0.63 | 1143.72
x1 = 0.684 | 1153.22
x1 = 0.763 | 1167.68
x1 = 0.83 | 1179.62
x1 = 0.915 | 1195.54
x1 = 0.981 | 1207.67
x1 = 1 | 1210.76

CN1CCCC1=O [N-methylpyrrolidone] + CC[NH3+].O=[N+]([O-])[O-]
Settings | mass density [kg/m3]
x2 = 0 | 1028.25

CN1CCCC1=O [N-methylpyrrolidone] + CCCC[NH3+].O=[N+]([O-])[O-]
Settings | mass density [kg/m3]
x2 = 0 | 1028.25

CCCC[NH3+].O=[N+]([O-])[O-] [n-butylammonium nitrate] + CN1CCCC1=O
Settings | mass density [kg/m3]
x1 = 0.048 | 1036.44
x1 = 0.108 | 1044.94
x1 = 0.163 | 1051.72
x1 = 0.267 | 1062.31
x1 = 0.365 | 1069.91
x1 = 0.439 | 1074.93
x1 = 0.538 | 1080.43
x1 = 0.67 | 1088.06
x1 = 0.843 | 1097.2
x1 = 1 | 1105.49

From the NIST ThermoML archive (doi:10.1016/j.fluid.2014.09.031)
